# Measured values: patent US12240815B2, “Potent and selective human neuronal nitric oxide synthase inhibitors” (Northwestern University, priority 2020, dated 2025)
# pKi: −log10 of the molar value. Where a name gives a salt, the structure may show the parent alone. Read-outs that look alike come from different tables or passages of the source.
# Columns and labels:
# rat nNOS = rat nNOS (Rattus norvegicus, UniProt P29476); assay: NO hemoglobin capture assay, rat nNOS; format: biochemical; settings: for Selectivity n/i: nNOS versus iNOS
# Sequence of rat nNOS (P29476 whole entry): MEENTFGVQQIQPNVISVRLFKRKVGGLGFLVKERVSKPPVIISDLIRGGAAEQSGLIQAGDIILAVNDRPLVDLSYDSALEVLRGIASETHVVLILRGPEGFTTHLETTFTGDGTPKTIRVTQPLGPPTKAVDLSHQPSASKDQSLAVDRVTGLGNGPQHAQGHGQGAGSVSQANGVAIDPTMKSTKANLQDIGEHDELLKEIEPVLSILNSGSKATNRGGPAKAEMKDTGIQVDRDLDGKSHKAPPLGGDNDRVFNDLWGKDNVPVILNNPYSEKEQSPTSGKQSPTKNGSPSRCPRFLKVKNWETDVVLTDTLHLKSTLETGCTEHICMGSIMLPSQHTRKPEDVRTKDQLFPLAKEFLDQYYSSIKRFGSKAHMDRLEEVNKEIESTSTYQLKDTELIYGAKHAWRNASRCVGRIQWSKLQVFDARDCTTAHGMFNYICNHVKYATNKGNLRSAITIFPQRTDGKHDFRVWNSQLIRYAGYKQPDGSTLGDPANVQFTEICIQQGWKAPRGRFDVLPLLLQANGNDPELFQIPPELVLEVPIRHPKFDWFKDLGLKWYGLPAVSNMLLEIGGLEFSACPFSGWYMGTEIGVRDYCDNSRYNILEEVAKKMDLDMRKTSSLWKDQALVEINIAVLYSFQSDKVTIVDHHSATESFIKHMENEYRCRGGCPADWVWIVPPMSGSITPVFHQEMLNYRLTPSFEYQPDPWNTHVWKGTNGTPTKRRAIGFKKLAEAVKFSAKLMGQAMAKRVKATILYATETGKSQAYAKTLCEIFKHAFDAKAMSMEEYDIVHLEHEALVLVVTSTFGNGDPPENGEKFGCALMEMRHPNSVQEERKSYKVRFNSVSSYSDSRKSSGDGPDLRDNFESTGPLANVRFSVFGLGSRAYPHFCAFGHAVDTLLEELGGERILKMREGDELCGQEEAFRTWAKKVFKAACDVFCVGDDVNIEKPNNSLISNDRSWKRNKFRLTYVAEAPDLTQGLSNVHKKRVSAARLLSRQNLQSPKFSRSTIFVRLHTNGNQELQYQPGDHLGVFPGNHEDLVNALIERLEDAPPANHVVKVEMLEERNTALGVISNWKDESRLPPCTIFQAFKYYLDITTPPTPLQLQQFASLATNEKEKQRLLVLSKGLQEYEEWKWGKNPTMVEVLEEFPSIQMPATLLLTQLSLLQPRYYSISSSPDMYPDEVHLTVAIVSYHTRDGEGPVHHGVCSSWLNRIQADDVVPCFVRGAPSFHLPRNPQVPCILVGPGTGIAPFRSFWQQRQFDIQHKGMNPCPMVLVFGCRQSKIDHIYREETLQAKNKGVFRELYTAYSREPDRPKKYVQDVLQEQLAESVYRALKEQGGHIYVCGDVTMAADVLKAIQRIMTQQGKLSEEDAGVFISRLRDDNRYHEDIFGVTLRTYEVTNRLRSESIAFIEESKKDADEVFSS
# murine macrophage iNOS = murine macrophage iNOS (Mus musculus, UniProt P29477); assay: NO hemoglobin capture assay, murine iNOS; format: biochemical
# human nNOS = human nNOS (Homo sapiens, UniProt P29475); assay: NO hemoglobin capture assay, human nNOS; format: biochemical; settings: for Selectivity Human n/e: human nNOS versus human eNOS
# Sequence of human nNOS (P29475 whole entry): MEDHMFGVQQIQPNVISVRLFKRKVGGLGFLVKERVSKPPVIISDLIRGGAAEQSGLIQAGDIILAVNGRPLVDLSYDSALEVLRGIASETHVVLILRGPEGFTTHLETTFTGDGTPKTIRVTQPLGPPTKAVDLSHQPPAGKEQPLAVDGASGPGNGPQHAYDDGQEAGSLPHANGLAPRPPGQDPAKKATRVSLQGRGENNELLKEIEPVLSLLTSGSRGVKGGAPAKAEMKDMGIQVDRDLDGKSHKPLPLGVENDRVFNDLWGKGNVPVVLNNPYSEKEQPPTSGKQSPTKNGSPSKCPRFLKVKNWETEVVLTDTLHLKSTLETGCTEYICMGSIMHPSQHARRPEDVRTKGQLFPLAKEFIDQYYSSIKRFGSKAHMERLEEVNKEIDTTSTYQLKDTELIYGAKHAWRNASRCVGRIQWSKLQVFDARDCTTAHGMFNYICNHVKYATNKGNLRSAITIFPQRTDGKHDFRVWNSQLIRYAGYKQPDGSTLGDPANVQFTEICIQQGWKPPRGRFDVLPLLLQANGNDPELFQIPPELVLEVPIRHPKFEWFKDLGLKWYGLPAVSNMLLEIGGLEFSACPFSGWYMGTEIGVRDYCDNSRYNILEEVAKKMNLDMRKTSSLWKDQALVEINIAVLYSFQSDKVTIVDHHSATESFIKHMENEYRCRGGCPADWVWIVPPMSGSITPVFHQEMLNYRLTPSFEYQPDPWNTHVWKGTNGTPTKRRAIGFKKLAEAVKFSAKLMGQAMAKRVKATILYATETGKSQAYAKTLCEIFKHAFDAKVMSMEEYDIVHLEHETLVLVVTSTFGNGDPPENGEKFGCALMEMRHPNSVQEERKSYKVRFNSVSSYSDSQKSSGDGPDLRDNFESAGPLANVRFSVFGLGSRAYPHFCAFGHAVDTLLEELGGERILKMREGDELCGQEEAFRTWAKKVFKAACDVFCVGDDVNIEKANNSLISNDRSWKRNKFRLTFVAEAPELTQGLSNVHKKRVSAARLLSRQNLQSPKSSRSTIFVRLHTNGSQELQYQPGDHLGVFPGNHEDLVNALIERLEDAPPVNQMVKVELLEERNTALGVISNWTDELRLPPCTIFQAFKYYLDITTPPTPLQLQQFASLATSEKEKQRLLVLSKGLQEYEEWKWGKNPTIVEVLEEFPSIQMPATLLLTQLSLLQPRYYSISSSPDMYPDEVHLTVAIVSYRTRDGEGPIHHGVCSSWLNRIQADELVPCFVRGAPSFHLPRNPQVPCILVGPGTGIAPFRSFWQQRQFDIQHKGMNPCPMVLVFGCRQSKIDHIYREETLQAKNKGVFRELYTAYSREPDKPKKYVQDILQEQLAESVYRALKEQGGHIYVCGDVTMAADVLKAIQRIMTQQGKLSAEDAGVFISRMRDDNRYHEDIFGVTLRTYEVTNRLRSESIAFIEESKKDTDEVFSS
# human eNOS = human eNOS (Homo sapiens, UniProt P29474); assay: NO hemoglobin capture assay, human eNOS
# human iNOS = human iNOS (Homo sapiens, UniProt P35228); assay: NO hemoglobin capture assay, human iNOS
# PAMPA-BBB assay = settings: for Papp at 17 h, 200 μM: PAMPA, pH 7.5; for Pe PAMPA-BBB: Table 4
# iNOS = iNOS (Mus musculus, UniProt P29477); assay: NO hemoglobin capture assay, iNOS (Table 4, species not given)
# [1] = Table 1, Ki from IC50 by Cheng-Prusoff, 10 μM L-Arg, pH 7.4, 37° C.
# [2] = pH 7.4, read-out: Ki human nNOS
# [3] = Table 4, read-out: Ki Human nNOS
# [4] = Table 5, Ki from IC50 by Cheng-Prusoff, 8 to 11 concentrations, read-out: Ki HnNOS
# [5] = read-out: Ki HiNOS, Table 5, Ki from IC50 by Cheng-Prusoff, 8 to 11 concentrations
# [6] = Table 5, Ki from IC50 by Cheng-Prusoff, 8 to 11 concentrations, read-out: Ki RnNOS
compound,measurement,setting,value
"CNCC#Cc1cc(F)cc(CCc2cc(C)cc(N)n2)c1 [Compound 2, 6-(3-fluoro-5-(3-(methylamino)prop-1-yn-1-yl)phenethyl)-4-methylpyridin-2-amine]",pKi,"rat nNOS; pH 7.4, read-out: Ki rat nNOS",7.49
same,pKi,murine macrophage iNOS; [1],5.12
same,pKi,human nNOS; [2],7.24
"Cc1cc(N)nc(CCc2cc(F)cc(C#CCN(C)C)c2)c1 [Compound 3, 6-(3-(3-(dimethylamino)prop-1-yn-1-yl)-5-fluorophenethyl)-4-methylpyridin-2-amine]",drop in rat nNOS potency compared to 1,rat nNOS,more than 2 fold
same,pKi,"rat nNOS; pH 7.4, read-out: Ki rat nNOS",7.24
same,pKi,murine macrophage iNOS; [1],5.31
same,drop in human nNOS potency compared to 1,human nNOS,> 4 fold
same,pKi,human nNOS; [2],6.91
"Cc1cc(N)nc(CCc2cc(F)cc(CC[C@@H]3CCCN3C)c2)c1 [Compound 5, (R)-6-(3-fluoro-5-(2-(1-methylpyrrolidin-2-yl)ethyl)phenethyl)-4-methylpyridin-2-amine]",pKi,"rat nNOS; pH 7.4, read-out: Ki rat nNOS",7.59
same,pKi,murine macrophage iNOS; [1],5.54
same,pKi,human nNOS; [2],7.28
"Cc1cc(N)nc(CCc2cc(F)cc(CC[C@H]3CCCN3C)c2)c1 [Compound 7, (S)-6-(3-fluoro-5-(2-(1-methylpyrrolidin-2-yl)ethyl)phenethyl)-4-methylpyridin-2-amine]",pKi,"rat nNOS; pH 7.4, read-out: Ki rat nNOS",7.48
same,pKi,murine macrophage iNOS; [1],5.47
same,pKi,human nNOS; [2],7.08
"Cc1cc(N)nc(CCc2cc(F)cc(CC[C@@H]3C[C@H](F)CN3)c2)c1 [Compound 8, 6-(3-fluoro-5-(2-((2R,4S)-4-fluoropyrrolidin-2-yl)ethyl)phenethyl)-4-methylpyridin-2-amine]",pKi,"rat nNOS; pH 7.4, read-out: Ki rat nNOS",7.19
same,pKi,murine macrophage iNOS; [1],5.34
same,drop in human nNOS potency compared to 1,human nNOS,4 fold
same,pKi,human nNOS; [2],6.89
"Cc1cc(N)nc(CCc2cc(F)cc(CC[C@@H]3C[C@H](F)CN3C)c2)c1 [Compound 9, 6-(3-fluoro-5-(2-((2R,4S)-4-fluoro-1-methylpyrrolidin-2-yl)ethyl)phenethyl)-4-methylpyridin-2-amine]",pKi,murine macrophage iNOS; [1],5.30
"Cc1cc(N)nc(CCc2cc(CCCN(C)C)cc(F)c2F)c1 [Compound 10, 6-(5-(3-(dimethylamino)propyl)-2,3-difluorophenethyl)-4-methylpyridin-2-amine]",pKi,human eNOS; read-out: Ki human eNOS,4.46
same,pKi,"rat nNOS; pH 7.4, read-out: Ki rat nNOS",7.72
same,pKi,murine macrophage iNOS; pH 7.4,6.08
same,pKi,human iNOS; read-out: Ki human iNOS,5.88
"Cc1cc(N)nc(CCc2cc(F)cc(CCCN(C)C)c2F)c1 [Compound 12, 6-(3-(3-(dimethylamino)propyl)-2,5-difluorophenethyl)-4-methylpyridin-2-amine]",pKi,"rat nNOS; pH 7.4, read-out: Ki rat nNOS",7.10
same,pKi,murine macrophage iNOS; [1],5.71
same,pKi,human nNOS; [2],6.80
"Cc1cc(N)nc(CCc2c(F)c(F)cc(CCCN(C)C)c2F)c1 [Compound 13, 6-(3-(3-(dimethylamino)propyl)-2,5,6-trifluorophenethyl)-4-methylpyridin-2-amine]",pKi,"rat nNOS; pH 7.4, read-out: Ki rat nNOS",7.33
same,pKi,murine macrophage iNOS; [1],5.49
same,pKi,human nNOS; [2],7.24
"Cc1cc(N)nc(CCc2cc(C#CCN(C)C)cc(F)c2F)c1 [Compound 16, 6-(5-(3-(dimethylamino)prop-1-yn-1-yl)-2,3-difluorophenethyl)-4-methylpyridin-2-amine]",pKi,"rat nNOS; pH 7.4, read-out: Ki rat nNOS",7.09
same,pKi,murine macrophage iNOS; [1],5.36
same,pKi,human nNOS; [2],7.08
"Cc1cc(N)nc(CCc2cc(CC[C@@H]3CCCN3C)cc(F)c2F)c1 [Compound 17, (R)-6-(2,3-difluoro-5-(2-(1-methylpyrrolidin-2-yl)ethyl)phenethyl)-4-methylpyridin-2-amine]","Papp at 17 h, 200 μM",PAMPA-BBB assay,~18 ×10⁻⁶ cm/s
"Cc1cc(N)nc(CCc2cc(CC[C@H]3CCCN3C)cc(F)c2F)c1 [Compound 18, (S)-6-(2,3-difluoro-5-(2-(1-methylpyrrolidin-2-yl)ethyl)phenethyl)-4-methylpyridin-2-amine]","Papp at 17 h, 200 μM",PAMPA-BBB assay,~18 ×10⁻⁶ cm/s
"Cc1cc(N)nc(CCc2cc(CC[C@H]3COCCN3C)cc(F)c2F)c1 [Compound 19, (S)-6-(2,3-difluoro-5-(2-(4-methylmorpholin-3-yl)ethyl)phenethyl)-4-methylpyridin-2-amine]",pKi,"rat nNOS; pH 7.4, read-out: Ki rat nNOS",7.21
same,pKi,murine macrophage iNOS; [1],5.46
same,pKi,human nNOS; [2],7.05
"CCO[C@@H]1C[C@H](CCc2cc(F)c(F)c(CCc3cc(C)cc(N)n3)c2)N(C)C1 [Compound 20, 6-(5-(2-((2S,4R)-4-ethoxy-1-methylpyrrolidin-2-yl)ethyl)-2,3-difluorophenethyl)-4-methylpyridin-2-amine]",pKi,"rat nNOS; pH 7.4, read-out: Ki rat nNOS",7.26
same,pKi,murine macrophage iNOS; [1],5.35
same,pKi,human nNOS; [2],7.06
CNC/C=C\c1cc(F)cc(CCc2cc(C)cc(N)n2)c1 [Compound 47],Pe PAMPA-BBB,PAMPA-BBB assay,10.92 ± 0.02 10^-6 cm/s
same,pKi,iNOS,5.64
same,pKi,human eNOS,4.61
same,Selectivity n/i,rat nNOS; Table 4,73
same,pKi,"rat nNOS; Table 4, read-out: Ki Rat nNOS",7.51
same,Selectivity nNOS human/rat,human nNOS; Table 4,2.5
same,Selectivity Human n/e,human nNOS; Table 4,320
same,pKi,human nNOS; [3],7.11
CNC/C=C/c1cc(F)cc(CCc2cc(C)cc(N)n2)c1 [Compound 48],Pe PAMPA-BBB,PAMPA-BBB assay,10.30 ± 0.02 10^-6 cm/s
same,pKi,iNOS,5.56
same,pKi,human eNOS,4.69
same,Selectivity n/i,rat nNOS; Table 4,130
same,pKi,"rat nNOS; Table 4, read-out: Ki Rat nNOS",7.68
same,Selectivity nNOS human/rat,human nNOS; Table 4,1.3
same,Selectivity Human n/e,human nNOS; Table 4,721
same,pKi,human nNOS; [3],7.55
CNCc1ccc2ncc(CCc3cc(C)cc(N)n3)cc2c1 [Compound 49],Pe PAMPA-BBB,PAMPA-BBB assay,No permeability
same,pKi,iNOS,5.42
same,pKi,human eNOS,4.66
same,Selectivity n/i,rat nNOS; Table 4,99
same,pKi,"rat nNOS; Table 4, read-out: Ki Rat nNOS",7.42
same,Selectivity nNOS human/rat,human nNOS; Table 4,0.9
same,Selectivity Human n/e,human nNOS; Table 4,614
same,pKi,human nNOS; [3],7.44
CNCC#Cc1cc(F)c(F)c(CCc2cc(C)cc(N)n2)c1F [Compound 50],Pe PAMPA-BBB,PAMPA-BBB assay,19.10 ± 0.5 10^-6 cm/s
same,pKi,iNOS,5.24
same,pKi,human eNOS,4.58
same,Selectivity n/i,rat nNOS; Table 4,48
same,pKi,"rat nNOS; Table 4, read-out: Ki Rat nNOS",6.92
same,Selectivity nNOS human/rat,human nNOS; Table 4,1.4
same,Selectivity Human n/e,human nNOS; Table 4,157
same,pKi,human nNOS; [3],6.77
Cc1cc(N)nc(CCc2c(F)c(F)cc(CC[C@@H]3CCCN3C)c2F)c1 [Compound 51],Pe PAMPA-BBB,PAMPA-BBB assay,20 ± 0.85 10^-6 cm/s
same,pKi,iNOS,5.23
same,pKi,human eNOS,4.53
same,Selectivity n/i,rat nNOS; Table 4,88
same,pKi,"rat nNOS; Table 4, read-out: Ki Rat nNOS",7.17
same,Selectivity nNOS human/rat,human nNOS; Table 4,1.7
same,Selectivity Human n/e,human nNOS; Table 4,266
same,pKi,human nNOS; [3],6.95
Cc1cc(N)nc(CCc2c(F)c(F)cc(CC[C@H]3CCCN3C)c2F)c1 [Compound 52],Pe PAMPA-BBB,PAMPA-BBB assay,20.3 ± 0.16 10^-6 cm/s
same,pKi,iNOS,5.00
same,pKi,human eNOS,4.56
same,Selectivity n/i,rat nNOS; Table 4,108
same,pKi,"rat nNOS; Table 4, read-out: Ki Rat nNOS",7.03
same,Selectivity nNOS human/rat,human nNOS; Table 4,1.62
same,Selectivity Human n/e,human nNOS; Table 4,196
same,pKi,human nNOS; [3],6.82
Cc1cc(N)nc(CCc2cc(CN(C)C)cc(F)c2F)c1 [Compound 54],pKi,iNOS,7.12
"Cc1cc(N)nc(CCc2cc(CCN(C)C)cc(F)c2F)c1 [Compound 58, 6-(5-(2-(Dimethylamino)ethyl)-2,3-difluorophenethyl)-4-methylpyridin-2-amine hydrochloride]",Pe PAMPA-BBB,PAMPA-BBB assay,19.5 ± 1.4 10^-6 cm/s
same,pKi,iNOS,5.98
"CN(C)CCc1cc(F)c(F)c(CCc2cccc(N)n2)c1 [Compound 59, 6-(5-(2-(Dimethylamino)ethyl)-2,3-difluorophenethyl)pyridin-2-amine hydrochloride]",pKi,"rat nNOS; Ki RnNOS, Table 5, Ki from IC50 by Cheng-Prusoff, 8 to 11 concentrations",6.03
same,pKi,human nNOS,5.50
"CNCCc1cc(F)c(F)c(CCc2cc(C)cc(N)n2)c1 [Compound 60, 6-(2,3-Difluoro-5-(2-(methylamino)ethyl)phenethyl)-4-methylpyridin-2-amine]",pKi,rat nNOS,7.55
same,pKi,human nNOS,7.62
same,Selectivity hn/hi,human nNOS; Table 5,72
same,Selectivity hn/rn,human nNOS; Table 5,1.2
same,pKi,human iNOS,5.76
"CN(C)CCc1cc(F)c(F)c(CCc2cc(C(F)(F)F)cc(N)n2)c1 [Compound 64, 6-(5-(2-(Dimethylamino)ethyl)-2,3-difluorophenethyl)-4-(trifluoromethyl)pyridin-2-amine]",pKi,human eNOS,3.99
"Nc1cc(Cl)cc(OCc2cccc(F)c2F)n1 [Compound 68, 4-Chloro-6-((2,3-difluorobenzyl)oxy)pyridin-2-aminehydrochloride]",pKi,rat nNOS; read-out: Ki RnNOS,3.99
"Cc1cc(N)nc(CCCN(C)C)c1 [Compound 69, 6-(3-(Dimethylamino)propyl)-4-methylpyridin-2-amine hydrochloride]",pKi,human eNOS,6.27
same,pKi,human nNOS; [4],7.54
same,pKi,human iNOS; [5],5.55
"CNCCCc1cc(C)cc(N)n1 [Compound 70, 4-Methyl-6-(3-(methylamino)propyl)pyridin-2-amine hydrochloride]",pKi,rat nNOS; [6],7.54
same,Selectivity hn/rn,human nNOS; Table 5,1.4
same,pKi,human nNOS; [4],7.68
same,pKi,human iNOS; [5],6.17
"CNCC#Cc1cc(C)cc(N)n1 [Compound 71, 4-Methyl-6-(3-(methylamino)prop-1-yn-1-yl)pyridin-2-amine hydrochloride]",pKi,rat nNOS; [6],7.06
same,Selectivity hn/rn,human nNOS; Table 5,1.0
same,pKi,human nNOS; [4],7.04
same,pKi,human iNOS; [5],5.45
"Cc1cc(N)nc(CCCN2CCN(C)CC2)c1 [Compound 72, 4-Methyl-6-(3-(4-methylpiperazin-1-yl)propyl)pyridin-2-amine]",pKi,rat nNOS; read-out: Ki RnNOS,7.26
same,Selectivity hn/rn,human nNOS; Table 5,3.0
same,pKi,human nNOS; [4],6.77
same,pKi,human iNOS; [5],4.99
"Cc1cc(N)nc(C#CCN2CCN(C)CC2)c1 [Compound 73, 4-Methyl-6-(3-(4-methylpiperazin-1-yl)prop-1-yn-1-yl)pyridin-2-amine]",pKi,rat nNOS; [6],6.02
same,Selectivity hn/rn,human nNOS; Table 5,2.2
same,pKi,human nNOS; [4],5.67
same,pKi,human iNOS; [5],3.94
